Results published in US20110178171A1, “COMPOUNDS FOR CANCER THERAPY” (China Medical University, priority 2010, published 2011).
One block for each compound: values may come before it.

What was measured:
LNCaP cells [1] = experiment: MTT growth inhibition assay, LNCaP; conditions: for IC50: LNCaP, androgen-dependent prostate adenocarcinoma
Protocol: (§1) The LNCaP (androgen-sensitive), PC3 (androgen in-dependent), human prostate cancer and normal human fibroblast 3T3 were obtained from American Type Culture Collection (Manassas, Va.) were maintained with RPMI 1640 medium containing 10% FBS and […] each of penicillin and streptomycin at […] in a humidified atmosphere with 5% CO2.
(§2) The viability of the cells after treated with various chemicals was evaluated using MTT assay preformed in triplicate (Mosmann T. 1983. Rapid colorimetric assay for cellular growth and survival: application to proliferation and cytotoxicity assays”. Journal of immunological methods. 65 (1-2): 55-63). Briefly, the cancer cells (5×10^3) were incubated in 96-well plates containing […] of the culture medium. Cells were permitted to adhere for 12-18 h then washed with phosphate buffered saline (PBS). Solutions were always prepared fresh by dissolving 0.2% DMSO or K8 in culture medium and added to various kind of tumor. After 48 h of exposure, K8 containing medium was removed, washed with PBS and replaced by fresh medium. The cells in each well were then incubated in culture medium with […] MTT for 4 h. After the medium were removed, […] of DMSO and […] of glycine buffer (0.1 M glycine, 0.1 M NaCl, pH 10.5) were added to each well. Absorbance at 570 nm of the maximum was detected by a PowerWave X Microplate ELISA Reader (Bio-TeK Instruments, Winoski, Vt.). The absorbance for DMSO treated cells was considered as 100%. The results were determined by three independent experiments.
Cytotoxicity of K8 (Isochaihulactone) on LNCaP cells was examined in the manner described above. The cells were treated with KS (Isochaihulactone), its Z-form, or its E-form of different concentrations ranging from 2.5 to 20 μM for 24 h.
Cytotoxicities of Z-K8 (Isochaihulactone) on LNCaP (AR-dependent), and PC3 (AR-independent) tumor cell line were examined in the manner described above. The cells were treated with the Z- or E-form K8 (Isochaihulactone) of different concentrations ranging from 0.3125 to 5 μM for 24 h.

PC3 cells = experiment: MTT growth inhibition assay, PC3; assay type: cell-based, human; conditions: PC3, androgen-independent prostate adenocarcinoma
Protocol: as §1, §2
Cytotoxicities of Z-K8 (Isochaihulactone) on LNCaP (AR-dependent), and PC3 (AR-independent) tumor cell line were examined in the manner described above. […]

[2] = test system: liver cancer cell line HepG2; experiment: MTT growth inhibition assay, HepG2; assay type: cell-based; conditions: HepG2, hepatocarcinoma
Protocol: (§3) The results were determined by three independent experiments.
(§4) Besides, the above assay was also conducted on gastric cancer cell line NCI-N87, liver cancer cell line HepG2 and J5, lung cancer cell line A549, and oral cancer cell line OECM-1.

[3] = test system: liver cancer cell line J5; experiment: MTT growth inhibition assay, J5; assay type: cell-based; conditions: J5, hepatocarcinoma
Protocol: as §3, §4

[4] = test system: lung cancer cell line A549; experiment: MTT growth inhibition assay, A549; assay type: cell-based, human; conditions: A549, lung adenocarcinoma
Protocol: as §3, §4

[5] = test system: oral cancer cell line OECM-1; experiment: MTT growth inhibition assay, OECM-1; assay type: cell-based; conditions: OECM-1, oral squamous cell carcinoma
Protocol: as §3, §4

LNCaP xenografts = experiment: Antitumor activity in vivo, LNCaP xenograft; parameters: species or system mice; conditions: for Tumor growth volume (mm^3): 30 mg/kg s.c. days 0-4
Protocol: Xenograft mice as a model system to study cytotoxicity effect of isochaihulactone in vivo: the implantation of cancer cells (LNCaP) were carried out similarly to previous reports. Female congenital athymic BALB/c nude (nu/nu) mice were purchased from National Sciences Council (Taipei, Taiwan) and all procedures were performed in compliance with the standard operating procedures of the Laboratory Animal Center of China Medical University (Taichung, Taiwan). All experiments were carried out using 6-8-week old mice weighing 18-22 g. The animals were s.c. implanted with 1×10^7 cell sinto the back of mice. When the tumor reached 80-120 mm3 in volume, animals were divided randomly into control and test groups consisting of six mice per group (day 0). Daily s.c. administration of z-K8, dissolved in a vehicle of 20% Tween 80 in normal saline (v/v) was performed from days 0 to 4 far from the inoculated tumor sites (>1.5 cm). The control group was treated with vehicle only. The mice were weighed three times a week up to days 21-28 to monitor the effects and the same time the tumor volume was determined by measurement of the length (L) and width (W) of the tumor. The tumor volume at day n (TVn) was calculated as TV (mm3)=(L×W^2)/2. The relative tumor volume at day n (RTVn) versus day 0 was expressed according to the following formula: RTVn=TVn/TV0. Tumor regression (T/C(%)) in treated versus control mice was calculated using: T/C(%)=(mean RTV of treated group)/(mean RTV of control group)×100. Xenograft tumors as well as other vital organs of treated and control. The results are shown in Tables 6 and 7 and FIGS. 6 and 7.
(§5) Assays were carried out to examine the inhibition of human xenografts growth in vivo by isochaihulactone. Briefly, LNCaP tumor-bearing mice were administered s.c. with vehicle control, 30 mg/kg E-K8, and Z-K8 respectively on days 0-4 for 5 days. The volumes of the tumors were measured. […] Scale bars, […]. Data represent means W S.D. of tumor volume at each time
as §5, with “Z-K8. Again,” for “isochaihulactone. Briefly,”, “Z-K8 15” for “30”, “mg/kg” for “mg/kg E-K8, and Z-K8 respectively”, “time point.” for “time”

LNCaP cells [6] = experiment: Cell cycle analysis by flow cytometry; assay type: cell-based, human; conditions: 20 nM
Protocol: The cell cycle was determined by flow cytometry with DNA staining to reveal the total amount of DNA. Approximately 5×10^5 of cells were incubated in various concentration of isochaihulactone for the indicated time. Cells were harvested by treating the cells with trypsin/EDTA. The cells were collected, washed with PBS, fixed with cold 70% ethanol overnight, and then stained with a solution containing […] PI, 10 mg/ml RNase A, and 0.1% Triton X-100 for 1 h in the dark. The cells will then pass through FACScan flow cytometer (equipped with a 488-nmargon laser) to measure the DNA content. The data was obtained and analyzed with CellQuest 3.0.1 (Becton Dickinson, Franklin Lakes, N.J.) and ModFitLT V2.0 software. The results are shown Table 4 and FIG. 4.
Assays were carried out to examine the effect of Z-K8 in inducing G2/M phase arrest and apoptosis in LNCaP cells. Briefly, the cells were treated with different concentrations of Z-K8 (ranging from 0.25 to 2 μM) for 24 h. The cell cycle analysis was done according to the method described above. As shown in FIG. 4 and Table 4, Z-K8 induced cell cycle G2/M arrest in LNCaP cells.

- IC50 (LNCaP cells [1]): 4.3 µM
- IC50 (PC3 cells): > 100 µM
- IC50 [2]: > 20 µM
- IC50 [3]: 21.5 µM
- IC50 [4]: 18.5 µM
Compound: COc1cc(/C=C2\C(=O)OC[C@@H]2Cc2ccc3c(c2)OCO3)cc(OC)c1OC [K8, isochaihulactone]
- Viability (%) (LNCaP cells [1]; 2.5 µM): 67.4%
- Viability (%) (LNCaP cells [1]; 5 µM): 43.6%
- Viability (%) (LNCaP cells [1]; 10 µM): 40.9%
- Viability (%) (LNCaP cells [1]; 20 µM): 21.0%

- IC50 (LNCaP cells [1]): > 20 µM
- IC50 (PC3 cells): > 20 µM
- IC50 [4]: > 100 µM
- IC50 [5]: > 1 µM
Compound: COc1cc(/C=C2/C(=O)OCC2Cc2ccc3c(c2)OCO3)cc(OC)c1OC (racemic) [E-K8]
- Viability (%) (LNCaP cells [1]; 2.5 µM): 86.2%
- Viability (%) (LNCaP cells [1]; 5 µM): 72.9%
- Viability (%) (LNCaP cells [1]; 10 µM): 69.8%
- Viability (%) (LNCaP cells [1]; 20 µM): 65.3%
- Tumor growth volume (mm^3) (LNCaP xenografts; day 1 after administration): 0 mm^3
- Tumor growth volume (mm^3) (LNCaP xenografts; day 4 after administration): 118.0 mm^3
- Tumor growth volume (mm^3) (LNCaP xenografts; day 7 after administration): 137.1 mm^3
- Tumor growth volume (mm^3) (LNCaP xenografts; day 10 after administration): 205.7 mm^3
- Tumor growth volume (mm^3) (LNCaP xenografts; day 13 after administration): 313.7 mm^3
- Tumor growth volume (mm^3) (LNCaP xenografts; day 16 after administration): 427.4 mm^3
- Tumor growth volume (mm^3) (LNCaP xenografts; day 19 after administration): 504.7 mm^3
- Tumor growth volume (mm^3) (LNCaP xenografts; day 22 after administration): 633.5 mm^3
- Tumor growth volume (mm^3) (LNCaP xenografts; day 25 after administration): 658.6 mm^3
- Tumor growth volume (mm^3) (LNCaP xenografts; day 28 after administration): 834.9 mm^3
- Tumor growth volume (mm^3) (LNCaP xenografts; day 31 after administration): 894.9 mm^3
- tumor growth inhibition, in words (LNCaP xenografts; LNCaP tumor-bearing mice, 30 mg/kg s.c. days 0-4 (FIG. 6)): tumor growth inhibition effect

Compound: CC(=O)O[C@H]1C(=O)[C@@]2(C)[C@H]([C@H](OC(=O)c3ccccc3)[C@]3(O)C[C@H](OC(=O)[C@H](O)[C@@H](NC(=O)c4ccccc4)c4ccccc4)C(C)=C1C3(C)C)[C@]1(OC(C)=O)CO[C@@H]1C[C@@H]2O [toxal, reference compound]
- Cells in phase (%) G0/G1 (LNCaP cells [6]): 16.40%
- Cells in phase (%) G2/M (LNCaP cells [6]): 40.23%
- Cells in phase (%) S (LNCaP cells [6]): 3.95%
- Cells in phase (%) Sub-G1 (LNCaP cells [6]): 11.43%
